Data set [1] has as its system bait averse/resistant German cockroach (T-164 strain). The experiment in a line: Knockdown/mortality of male cockroaches under continuous exposure on treated glazed tile. The settings on record: for toxicity / efficacy of the substance alone (summary in words): German cockroach T-164, treated glazed tile; for Average % Knockdown & Mortality after 45 min: Table 24, imidacloprid/dibutyl sebacate (DBS) in acetone, T-164 strain. The format is in vivo, Blattella germanica. Set-up: Average % Knockdown & Mortality after 5 hr / Average % Knockdown & Mortality after 30 min: concentration or dose not given beside the values.

The subject of data set [2] is Argentine ant, Linepithema humile. The experiment in a line: Knockdown/mortality of ant workers under continuous exposure on treated glazed tile. The following applies: for toxicity / efficacy of the substance alone (summary in words): Argentine ant, treated glazed tile. On the procedure:
(§1) Solutions of imidacloprid at 0.5% AI were prepared with and without methyl oleate @0.1, 1.0 and 5.0% in acetone. Treatments were applied using a micropipette to dispense 1 ml of test solution evenly on a 6″×6″ glazed tile. Actual coverage was about 5″×5″ (or 161 cm^2) for easy handling. Treatments were allowed to dry overnight. Ten Argentine ant workers were placed within a fluon or talc-coated PVC ring (φ7.6 cm×H 5.1 cm) under continuous exposure. A small vial filled with a cotton ball soaked in water was added as a drinking source after 3 hours. Treatments were replicated a minimum of three times. Evaluations for ant knockdown/mortality were made at various intervals and at 24 hours after exposure.
as §1, with “MATERIALS AND METHODS: Solutions” for “Solutions”, “linoleate” for “oleate”
as §1, with “MATERIALS AND METHODS: Solutions of” for “Solutions of”, “without methyl palmitate @0.1, 1.0” for “without methyl oleate @0.1, 1.0”, “after exposure. […]” for “after exposure.”

A further data set has as its system Aedes aegypti mosquito. Put plainly: USDA Petri Dish Method, 3 min exposure to treated glazed tile. The format is in vivo. The following applies: Aedes aegypti. The method, then: Treatments were allowed to dry overnight. USDA Petri Dish Method was used as initial screening protocol. Twenty, 4-6 day old female Aedes aegypti mosquitoes were exposed to each treatment for 3 minutes and then moved to a clean untreated white paper index card. Treatments were replicated a minimum of three times. Mosquito knockdown was evaluated at various intervals through 7 hours after exposure. A small cotton ball soaked in sucrose solution was added on the screen top of the petri-dish as a drinking source. Mortality was evaluated at 24 hours after exposure.
MATERIALS AND METHODS: Solutions of resmethrin at 1 and 0.5% AI were prepared with and without adjuvant in acetone. […] USDA Petri Dish Method was used as initial screening protocol. Twenty, 4-6 day old female Aedes aegypti mosquitoes were exposed to each treatment for 3 minutes and then moved to a clean untreated white paper index card. Treatments were replicated a minimum of three times. Mosquito knockdown was evaluated at 3 minute intervals for the first 15 minutes and then at 5 minute intervals for the remainder of an hour. A small cotton ball soaked in sucrose solution was added on the screen top of the petri-dish as a drinking source. Mortality was evaluated at 24 hours after exposure.
Treatments were allowed to dry overnight. USDA Petri Dish Method was used as initial screening protocol. Twenty, 4-6 day old female Aedes aegypti mosquitoes were exposed to each treatment for 3 minutes and then moved to a clean untreated white paper index card. Treatments were replicated a minimum of three times. Mosquito knockdown was evaluated at various intervals through 6 hours after exposure. A small cotton ball soaked in sucrose solution was added on the screen top of the petri-dish as a drinking source. Mortality was evaluated at 24 hours after exposure.
Treatments were allowed to dry overnight. USDA Petri Dish Method was used as initial screening protocol. Twenty, 4-6 day old female Aedes aegypti mosquitoes were exposed to each treatment for 3 minutes and then moved to a clean untreated white paper index card. Treatments were replicated a minimum of three times. Mosquito knockdown was evaluated at 5 minute intervals for the first hour and then at 2, 4 and 6 hours. A small cotton ball soaked in sucrose solution was added on the screen top of the petri-dish as a drinking source. Mortality was evaluated at 24 hours after exposure.
Treatments were allowed to dry overnight. USDA Petri Dish Method was used as initial screening protocol. Twenty, 4-6 day old female Aedes aegypti mosquitoes were exposed to each treatment for 3 minutes and then moved to a clean untreated white paper index card. Treatments were replicated a minimum of three times. Mosquito knockdown was evaluated at 3-5 minute intervals for the first hour. A small cotton ball soaked in sucrose solution was then added on the screen top of the petri-dish as a drinking source. Mortality was evaluated at 24 hours after exposure.
Treatments were allowed to dry overnight. USDA Petri Dish Method was used as initial screening protocol. Twenty, 4-6 day old female Aedes aegypti mosquitoes were exposed to each treatment for 3 minutes and then moved to a clean untreated white paper index card. Treatments were replicated a minimum of three times. Mosquito knockdown was evaluated at various intervals through 2 hours after exposure. A small cotton ball soaked in sucrose solution was then added on the screen top of the petri-dish as a drinking source. Mortality was evaluated at 24 hours after exposure.
Treatments were allowed to dry overnight. USDA Petri Dish Method was used as initial screening protocol. Twenty, 4-6 day old female Aedes aegypti mosquitoes were exposed to each treatment for 3 minutes and then moved to a clean untreated white paper index card. Treatments were replicated a minimum of three times. Mosquito knockdown was evaluated at various hourly intervals. […]

[3] abbreviates: Table 15 (Ex. 12), glazed tile, continuous exposure.
Setting [4] is: Table 15 (Ex. 12), glazed tile, continuous exposure, listed as Butylated hydroxyanisole (BHA) (1%).
Where [5] appears, read: Table 15 (Ex. 12), glazed tile, continuous exposure, listed as Butylated hydroxyanisole (BHA) (5%).
The mark [6] stands for this setting: Table 14 (Ex. 11), glazed tile, continuous exposure.
The mark [7] stands for this setting: Table 16 (Ex. 13), glazed tile, continuous exposure, listed as Butylated hydroxytoluene (BHT) (1%).
Where [8] appears, read: Table 16 (Ex. 13), glazed tile, continuous exposure, listed as Butylated hydroxytoluene (BHT) (5%).
Setting [9] is: 2 hr, Table 25, imidacloprid/dibutyl sebacate (DBS) in acetone, glazed tile.
[10] abbreviates: 4 hr, Table 25, imidacloprid/dibutyl sebacate (DBS) in acetone, glazed tile.
Setting [11] is: Table 56, glazed tile, 3 min exposure.
Setting [12] is: Table 56, glazed tile, 3 min exposure, adjuvant = Compound A 1% + Compound B 0.5%.

Regarding `COc1ccc(O)c(C(C)(C)C)c1` [BHA, butylated hydroxyanisole], the “toxicity / efficacy of the substance alone (summary in words)” value (“toxicity / efficacy” for short) in data set [1] is “at the high rate (5%) was toxic to the German cockroach, but not at its lower rates (1.0 and 0.1%)”; in data set [2], “delayed toxicity”. Moreover, the “Average % Knockdown & Mortality after 30 min” value in data set [1] (setting [3]) was 0%; in data set [2] (Table 14 (Ex. 11), glazed tile, continuous exposure, UTC 63% at 24 hr), 0%. Besides, the “Average % Knockdown & Mortality after 1 hr” value in data set [1] (setting [3]) and in data set [2] (setting [6]) was 0% in each case. In addition, the “Average % Knockdown & Mortality after 24 hr” value in data set [1] (Table 15 (Ex. 12), glazed tile, continuous exposure, listed as Butylated hydroxyanisole (BHA) (0.1%)) was determined as 20%; in data set [1] (setting [4]) it was 0%; in data set [1] (setting [5]) it was 73%; in data set [2] (Table 14 (Ex. 11), glazed tile, continuous exposure, UTC 63% at 24 hr, listed as Butylated hydroxyanisole (BHA) (0.1%)) it was 37%; in data set [2] (Table 14 (Ex. 11), glazed tile, continuous exposure, UTC 63% at 24 hr, listed as Butylated hydroxyanisole (BHA) (1%)), 40%; in data set [2] (Table 14 (Ex. 11), glazed tile, continuous exposure, UTC 63% at 24 hr, listed as Butylated hydroxyanisole (BHA) (5%)), 74%. Moreover, the “Average % Knockdown & Mortality after 2 hr” value amounted to 0% in data set [1] (setting [4]), 20% in data set [1] (setting [5]) and 0% in data set [2] (setting [6]). Also, the “Average % Knockdown & Mortality after 4 hr” value in data set [1] (setting [4]) amounted to 0%; in data set [1] (setting [5]), 20%; in data set [2] (Table 14 (Ex. 11), glazed tile, continuous exposure, listed as Butylated hydroxyanisole (BHA) (0.1%)) it was 10%; in data set [2] (Table 14 (Ex. 11), glazed tile, continuous exposure, listed as Butylated hydroxyanisole (BHA) (1%)) it was 3%; in data set [2] (Table 14 (Ex. 11), glazed tile, continuous exposure, listed as Butylated hydroxyanisole (BHA) (5%)), 19%.

For the compound `Cc1cc(C(C)(C)C)c(O)c(C(C)(C)C)c1` [BHT, butylated hydroxytoluene], the “toxicity / efficacy” value in data set [1] is on record as “not toxic”; in data set [2], “toxic”. The “Average % Knockdown & Mortality after 5 hr” value in data set [1] (Table 17 (Ex. 14), glazed tile, continuous exposure) stood at 0%. For the same compound, the “Average % Knockdown & Mortality after 18 hr” value in data set [2] (Table 16 (Ex. 13), glazed tile, continuous exposure, listed as Butylated hydroxytoluene (BHT) (0.1%)) was 7%; in data set [2] (setting [7]), 3%; in data set [2] (setting [8]), 79%. Further, the “Average % Knockdown & Mortality after 2 hr” value is 3% in data set [2] (setting [7]) and 7% in data set [2] (setting [8]).

`CN/C(=N\[N+](=O)[O-])NCc1cnc(Cl)s1` [Clothianidin (1%)]: the “Average % Knockdown & Mortality after 1 hr” value in the data set with Aedes aegypti mosquito (Table 78, clothianidin study, glazed tile, 3 min exposure, adjuvant = Compound A 1% + Compound B 0.5%, 1 hr) was 0%. In the data set with Aedes aegypti mosquito (Table 78, clothianidin study), the “Average % Knockdown & Mortality after 2 hr” value worked out at 0%, the “Average % Knockdown & Mortality after 4 hr” value is 0% and the “Average % Knockdown & Mortality after 24 hr” value worked out at 0%.

With `CCCCOC(=O)CCCCCCCCC(=O)OCCCC` [DBS (0.1%)], the “Average % Knockdown & Mortality after 45 min” value in data set [1] (glazed tile) is listed as 0%. Moreover, the “Average % Knockdown & Mortality after 2 hr” value in data set [2] (setting [9]) came out at 0%. In addition, the “Average % Knockdown & Mortality after 4 hr” value in data set [2] (setting [10]) turned out to be 9%.

On to `CCCCOC(=O)CCCCCCCCC(=O)OCCCC` [DBS (1%)], for which the “Average % Knockdown & Mortality after 45 min” value in data set [1] (glazed tile) is recorded as 0%. For the same compound, the “Average % Knockdown & Mortality after 2 hr” value in data set [2] (setting [9]) is reported as 0%. Also, the “Average % Knockdown & Mortality after 4 hr” value in data set [2] (setting [10]) was 77%.

As for `CCCCOC(=O)CCCCCCCCC(=O)OCCCC` [DBS (5%)], the “Average % Knockdown & Mortality after 45 min” value in data set [1] (glazed tile) is 0%. In addition, in data set [2] (setting [9]), the “Average % Knockdown & Mortality after 2 hr” value is reported as 100%. Besides, in data set [2] (setting [10]), the “Average % Knockdown & Mortality after 4 hr” value amounted to 100%.

Regarding `CCCCOC(=O)CCCCCCCCC(=O)OCCCC` [DBS, dibutyl sebacate], the “toxicity / efficacy” value is “not toxic to German cockroaches, except at its highest rate (5%)” in data set [1]; “toxic to the Argentine ants, and the lower rates (0.1 & 1.0%) of DBS showed delayed toxicity” in data set [2].

With `c1ccc(Cc2ccccc2)cc1` [Diphenyl methane, diphenyl methane], the “toxicity / efficacy” value in data set [1] and in data set [2] was “not toxic” in each case. The “Average % Knockdown & Mortality after 3 hr” value in data set [1] (Table 21 (Ex. 18), glazed tile, continuous exposure) is reported as 0%. Further, in data set [2] (Table 20 (Ex. 17), glazed tile, continuous exposure), the “Average % Knockdown & Mortality after 2 hr” value is on record as 0%. The “Average % Knockdown & Mortality after 4 hr” value amounted to 13% in data set [2] (Table 20 (Ex. 17), glazed tile, continuous exposure, listed as Diphenyl methane (DPM) (0.1%)) and 0% in data set [2] (Table 20 (Ex. 17), glazed tile, continuous exposure, listed as Diphenyl methane (DPM) (5%)).

With `CC[S+]([O-])c1c(C#N)nn(-c2c(Cl)cc(C(F)(F)F)cc2Cl)c1N` (stereo not drawn) [Ethiprole (.01%)], in the data set with Aedes aegypti mosquito (setting [11]), the “Average % Knockdown & Mortality after 4 hr” value stood at 2%, the “Average % Knockdown & Mortality after 6 hr” value was determined as 12% and the “Average % Knockdown & Mortality after 24 hr” value came to 17%. Further, the “Average % Knockdown & Mortality after 2 hr” value in the data set on Aedes aegypti mosquito (setting [12]) was determined as 0%.

As for `CC[S+]([O-])c1c(C#N)nn(-c2c(Cl)cc(C(F)(F)F)cc2Cl)c1N` (stereo not drawn) [Ethiprole (.1%)], in the data set with Aedes aegypti mosquito (setting [11]), the “Average % Knockdown & Mortality after 4 hr” value is given as 3%, the “Average % Knockdown & Mortality after 6 hr” value was determined as 15% and the “Average % Knockdown & Mortality after 24 hr” value is recorded as 25%. In addition, in the data set with Aedes aegypti mosquito (setting [12]), the “Average % Knockdown & Mortality after 2 hr” value turned out to be 3%.
